{"source": "paper PMC4111509", "about": "(PLoS ONE, 2014)", "test_in_all_cases": "HPLC-UV product detection", "assay_type_in_all_cases": "biochemical", "details_in_all_cases": "AdoMet co-substrate", "key": {"NpN4OMT4": {"target": "T1, NpN4OMT4 (Narcissus aff. pseudonarcissus MK-2014, UniProt A0A077ES70)", "T1 construct": "gene N4OMT4; full length, N-terminal His tag (pET28a), E. coli, purified", "T1 sequence (A0A077ES70 whole entry)": "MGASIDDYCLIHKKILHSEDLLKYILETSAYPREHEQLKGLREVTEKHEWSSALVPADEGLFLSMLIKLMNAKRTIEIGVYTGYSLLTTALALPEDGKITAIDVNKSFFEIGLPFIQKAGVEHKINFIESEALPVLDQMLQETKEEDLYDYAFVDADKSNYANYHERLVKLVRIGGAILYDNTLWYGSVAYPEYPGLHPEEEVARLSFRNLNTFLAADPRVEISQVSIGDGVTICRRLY"}, "NpN4OMT2": {"target": "T2, NpN4OMT2 (Narcissus aff. pseudonarcissus MK-2014, UniProt A0A077EW86)", "T2 construct": "gene N4OMT2; full length, N-terminal His tag (pET28a), E. coli, purified", "T2 sequence (A0A077EW86 whole entry)": "as the sequence (A0A077ES70 whole entry) above, with C9S, I11V, K14N, I67L counted along it"}, "NpN4OMT5": {"target": "T3, NpN4OMT5 (Narcissus aff. pseudonarcissus MK-2014, UniProt A0A077ESS0)", "T3 construct": "gene N4OMT5; full length, N-terminal His tag (pET28a), E. coli, purified", "T3 sequence (A0A077ESS0 whole entry)": "as the sequence (A0A077ES70 whole entry) above, with I67L counted along it"}}}
{"smiles": "Oc1ccc(CCNCc2ccc(O)c(O)c2)cc1", "note": "[norbelladine]", "values": [{"measurement": "HPLC-UV product detection", "setting": "NpN4OMT4", "value": "enzymatic activity was confirmed for all variants using norbelladine as the substrate"}, {"measurement": "HPLC-UV product detection", "setting": "NpN4OMT2", "value": "enzymatic activity was confirmed for all variants using norbelladine as the substrate"}, {"measurement": "HPLC-UV product detection", "setting": "NpN4OMT5", "value": "enzymatic activity was confirmed for all variants using norbelladine as the substrate"}]}
